Reference: patent publication US6683061B1, “Enzyme catalyzed therapeutic activation” (NewBiotics, Inc., priority 1999, dated 2004)
Where two headings read alike, the source gives them in different places. Blank lines part the entries; values can stand above or below the compound they belong to.

Legend:
MCF7TDX [1] = assay: AlamarBlue cell proliferation assay; format: cell-based, human; details: 120 hours drug exposure
Method: (§1) Cells growing exponentially were transferred to 384-well flat bottom tissue culture plates. All cell types were plated at a density of 500 cells per well in 25 μL of complete medium (RPMI 1640+10% fetal bovine serum+antibiotics/antimycotics). After 24 hours (day 0), 25 μL of complete medium containing the compounds over the dose range of 10^−3 to 10^−10 M were added in triplicate. Drug exposure time was 120 hours (day 5), after which growth inhibition was assayed. 5 μL of the redox indicator, alamarBlue, was added to each well (10% v/v). After 4 hours incubation at 37° C., fluorescence was monitored at 535 nm excitation and 595 nm emission.
(§2) Numbering in Tables 5 and 6 refer to the structures, shown infra. Results from testing using the alamarBlue assay are shown in Table 5, and results from crystal violet based assays are shown in Table 6. MCF7-TDX was derived from MCF7 breast tumor cells via selection in cell culture in the presence of Tomudex, a direct inhibitor of TS. Such selection often results in high intracellular levels of TS (Freemantle, S. J. et al. (1995)). Similarly, H630R10 is a 5FU (fluoropyrimidine) resistant colon cancer epithelial cell line derived from H630 colon cancer cells. See, Copur, S. et al. (1995). HT1080, #12, is a fibrosarcoma tumor cell line that expresses high levels of TS via a transgene introduced into HT1080 tumor cells. […]

MCF7TDX [2] = assay: Crystal violet cell proliferation inhibition assay; details: read-out: Cytotoxic Activity, MCF7TDX
Method: The ability of the test compounds to block proliferation of cells was determined by the crystal violet procedure.
Compounds were dissolved in dimethyl sulfoxide to a concentration of 1M. They were further diluted as necessary into DMEM cell culture medium, and subsequently into the first wells of the 96-well microtiter plate. Each concentration was tested in triplicate on the target cell line. Compound concentrations from 1 μM to 3000 μM were tested. Cells were incubated with compound for 72 hours, the plates were washed, and the cells fixed with methanol and stained with crystal violet as described in Sugarman, B. J. et al. (1985); and Antelman, D. et al. (1995).
The ability of each isolated compound to block cell proliferation was then determined by the crystal violet procedure.
The first two cell lines, TS HT1080 #12 and MCF7TDX express high levels of TS, while the other two, CCD18co and Det551, are normal cells.

CCd18co = assay: Crystal violet cell proliferation inhibition assay; format: cell-based, human
Text: (§3) Numbering in Tables 5 and 6 refer to the structures, shown infra. Results from testing using the alamarBlue assay are shown in Table 5, and results from crystal violet based assays are shown in Table 6. MCF7-TDX was derived from MCF7 breast tumor cells via selection in cell culture in the presence of Tomudex, a direct inhibitor of TS. Such selection often results in high intracellular levels of TS (Freemantle, S. J. et al. (1995)). Similarly, H630R10 is a 5FU (fluoropyrimidine) resistant colon cancer epithelial cell line derived from H630 colon cancer cells. See, Copur, S. et al. (1995). HT1080, #12, is a fibrosarcoma tumor cell line that expresses high levels of TS via a transgene introduced into HT1080 tumor cells. Normal cell lines used in these assays include CCD18co (normal colon epithelium) and Det551 (normal skin).

Det551 = assay: Crystal violet cell proliferation inhibition assay; format: cell-based, human
Text: as §3

HT1080 #12 = assay: Crystal violet cell proliferation inhibition assay; format: cell-based; details: crystal violet procedure, Table 7; high TS; read-out: Cytotoxic Activity, TS HT1080 #12
Text: as §3

normal and tumor cells = assay: Cell proliferation assays (alamarBlue, crystal violet), results stated in words; format: cell-based, human; details: summary of Tables 5-7
Method: as §1
The data in both Tables 5 and 6 indicate that most compounds are active as phosphoramidates and nucleosides. […] Cytotoxicity results with the nucleosides, especially BVdU, NB1020™ (ClVdU) and NB1024™, are surprising since the literature teaches that 5-substituted compounds like BVdU are not efficiently monophosphorylated by human cells unless they express viral thymidine kinase. See, Balzarini, J. et al. (1985) and De Clerq, E. et al. (1997). These authors have proposed that once phosphorylated by the herpesvirus-encoded TK, the 5-substituted nucleotide derivative can bind to the TS enzyme and inactivate it. […] Alternatively, some tumor cells may have an unusually high amount, or form the normal TK enzyme (Suki, S. et al. (1995); and Romain, S. et al. (1995)), leading to a low, but sufficient activation of nucleosides to their corresponding monophosphates.

[3] = Crystal violet cell proliferation inhibition assay; format: cell-based, human; details: human, crystal violet procedure, Table 7, normal cells
Text: as §3

H630R10 [4] = assay: Amount of nucleoside and monophosphate in cells (HPLC of lysates); format: cell-based, human; details: 100 μm BVdU, 2 days treatment
Method: (§4) Cells were incubated in complete media with 100 μm BVdU.

MCF7TDX [5] = assay: as above; format: cell-based, human; details: 100 μm BVdU, 2 days treatment
Method: as §4

MCF7 = assay: as above; format: cell-based, human; details: 100 μm BVdU, 2 days treatment
Method: as §4

H630R10 [6] = assay: AlamarBlue cell proliferation assay; format: cell-based, human; details: 120 hours drug exposure
Method: as §1, §2

[7] = crystal violet procedure, Table 7, high TS
[8] = crystal violet procedure, Table 7, normal cells, read-out: Cytotoxic Activity, CCD18co
[9] = crystal violet procedure, Table 7, normal cells, read-out: Cytotoxic Activity, Det551

Compound: 5-(2-Bromovinyl)-2′-Deoxyuridine Phenyl N-Methoxy-L-alaninyl Phosphoramidate [NB1011]
- IC50 (MCF7TDX [1]): 2 µM
- IC50 (MCF7TDX [2]; [7]): 4.2 µM
- IC50 (CCd18co; [8]): 461 µM
- IC50 (CCd18co; crystal violet, 72 hours, normal colon epithelium, read-out: IC50 CCD18co): 408 µM
- IC50 (Det551; [9]): 263 µM
- IC50 (Det551; crystal violet, 72 hours, normal skin, read-out: IC50 Det551): 356 µM
- IC50 (HT1080 #12): 4.3 µM

Compound: O=c1[nH]c(=O)n([C@H]2C[C@H](O)[C@@H](CO)O2)cc1/C=C/C=C\Br (single isomer, unassigned; isomer 1) [NB1024 Isomer 1, 5-(4-Bromo-1E,3Z-butadienyl)-2′-dexoyuridine]
- IC50 (MCF7TDX [2]; [7]): 9.8 µM
- IC50 (CCd18co; [8]): > 300 µM
- cytotoxic / growth inhibiting activity in words (normal and tumor cells): significantly greater growth inhibiting activity
- IC50 (HT1080 #12): 10.1 µM

Compound: O=c1[nH]c(=O)n([C@H]2C[C@H](O)[C@@H](CO)O2)cc1/C=C/C=C/Br (single isomer, unassigned; isomer 2) [NB1024 Isomer 2, 5-(4-Bromo-1E,3E-butadienyl)-2′-dexoyuridine]
- IC50 (MCF7TDX [2]; [7]): > 300 µM
- IC50 (Det551; [9]): > 300 µM
- IC50 (HT1080 #12): > 300 µM

Compound: O=c1[nH]c(=O)n([C@H]2C[C@H](O)[C@@H](CO)O2)cc1/C=C/Br [BVDU, (E)-5-(2-Bromovinyl)-2′-deoxyuridine]
- IC50 (MCF7TDX [2]; Homo sapiens): < 0.8 µM
- IC50 at 72 h ([3]; CCD18co cells (normal colon epithelium), read-out: Cytotoxic Activity, CCD18co): > 1000 µM
- IC50 at 72 h ([3]; Det551 cells (normal skin), read-out: Cytotoxic Activity, Det551): > 1000 µM
- BVdU level in cell lysate (H630R10 [4]): 26.3 HPLC peak area at 300 nm
- BvdUMP/(BVdUMP + BVdU) × 100 (H630R10 [4]): <4
- BVdU level in cell lysate (MCF7TDX [5]): 39.0 HPLC peak area at 300 nm
- BvdUMP/(BVdUMP + BVdU) × 100 (MCF7TDX [5]): 21.2
- BVdU level in cell lysate (MCF7): 90.8 HPLC peak area at 300 nm
- BvdUMP/(BVdUMP + BVdU) × 100 (MCF7): 44.2

- IC50 (H630R10 [6]): 192 µM
Compound: COC(=O)C(C)NP(=O)(OCC1OC(n2ccc(=O)[nH]c2=O)CC1O)Oc1ccccc1 (centres unmarked) [NB1025]
- cytotoxic / growth inhibiting activity in words (normal and tumor cells): active

Compound: O=c1ccn(C2CC(O)C(CO)O2)c(=O)[nH]1 (centres unmarked) [NB1026]
- cytotoxic / growth inhibiting activity in words (normal and tumor cells): little detectable activity
